Read-outs that look alike come from different tables or passages of the source.
Assays:
[1] = target: human recombinant MAGL (Homo sapiens (Human), UniProt Q99685); experiment: In vitro inhibition of human recombinant MAGL activity (Cayman inhibitor screening kit, 4-nitrophenylacetate hydrolysis); assay type: biochemical
Source text: The inhibitory effect of the synthetic chemicals on activity of human recombinant MAGL was studied using commercial inhibitor screening kit (Cayman Chemical). […] The absorbance of the yellow product can be analyzed using the plate reader. […]

[2] = target: human recombinant FAAH (Homo sapiens (Human), UniProt O00519); experiment: In vitro inhibition of human recombinant FAAH activity (Cayman FAAH inhibitor screening kit, AMC arachidonoyl amide hydrolysis); assay type: biochemical
human recombinant FAAH, sequence (O00519 whole entry): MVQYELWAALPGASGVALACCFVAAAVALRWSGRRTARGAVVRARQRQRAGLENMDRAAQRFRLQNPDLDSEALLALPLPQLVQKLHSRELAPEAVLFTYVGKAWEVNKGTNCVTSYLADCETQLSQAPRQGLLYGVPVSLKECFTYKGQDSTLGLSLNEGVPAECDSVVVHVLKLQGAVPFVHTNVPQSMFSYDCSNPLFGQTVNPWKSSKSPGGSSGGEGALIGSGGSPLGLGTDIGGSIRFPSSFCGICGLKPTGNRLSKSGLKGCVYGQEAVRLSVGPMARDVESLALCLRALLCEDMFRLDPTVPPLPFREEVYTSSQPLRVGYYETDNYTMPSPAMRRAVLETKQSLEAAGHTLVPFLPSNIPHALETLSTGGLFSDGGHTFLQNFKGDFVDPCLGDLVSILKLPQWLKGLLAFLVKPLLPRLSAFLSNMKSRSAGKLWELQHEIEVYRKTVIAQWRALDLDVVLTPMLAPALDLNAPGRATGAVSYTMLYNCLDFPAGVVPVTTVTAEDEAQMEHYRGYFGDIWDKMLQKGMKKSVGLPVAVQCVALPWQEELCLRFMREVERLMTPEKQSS
Source text: In brief, FAAH hydrolyzes AMC arachidonoyl amide resulting in the release of the fluorescent product, while the inhibitor will inhibit the FAAH activity and thus reduce the fluorescent signal.

[3] = human recombinant MAGL, read-out: Inhibition on MAGL activity (IC50)

human recombinant MAGL, sequence (Q99685 whole entry): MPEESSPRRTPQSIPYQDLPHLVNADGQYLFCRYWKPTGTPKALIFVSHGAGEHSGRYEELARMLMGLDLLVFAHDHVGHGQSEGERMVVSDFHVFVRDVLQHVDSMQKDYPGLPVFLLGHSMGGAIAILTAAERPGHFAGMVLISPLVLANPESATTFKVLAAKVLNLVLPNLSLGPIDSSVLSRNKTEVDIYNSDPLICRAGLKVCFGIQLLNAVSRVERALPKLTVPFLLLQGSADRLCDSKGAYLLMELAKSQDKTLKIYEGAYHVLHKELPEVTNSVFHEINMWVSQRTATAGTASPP

Row | Compound | IC50 [1, 3] [nM] | IC50 [2] [nM] | IC50 [1] [nM]
1 | O=C(Oc1ccc(Oc2ccccc2)cc1)N1CCN(C(c2ccc3c(c2)COCO3)c2ccc3c(c2)COCO3)CC1 [Example 7, 4-phenoxyphenyl 4-(bis(4H-benzo[d][1,3]dioxin-6-yl)methyl)piperazine-1-carboxylate] | > 100 | > 10000 | 
2 | N#Cc1ccc2c(c1)nnn2C(=O)N1CCC(N(c2cccnc2)c2ccc3c(c2)OCO3)CC1 [Example 75, 1-(4-(benzo[d][1,3]dioxol-5-yl(pyridin-3-yl)amino)piperidine-1-carbonyl)-1H-benzo[d][1,2,3]triazole-5-carbonitrile] | 1 to 10 | 100 to 1000 | 
3 | O=C(Oc1ccc([N+](=O)[O-])cc1F)N1CCN(C(c2ccc3c(c2)COCO3)c2ccc3c(c2)COCO3)CC1 [Example 19, 2-fluoro-4-nitrophenyl 4-(bis(4H-benzo[d][1,3]dioxin-6-yl)methyl)piperazine-1-carboxylate] | > 100 | > 50000 | 
4 | O=C(N1CCN(C(c2ccc3c(c2)COCO3)c2ccc3c(c2)COCO3)CC1)n1nnc2ccc(F)cc21 [Example 39, (4-(bis(4H-benzo[d][1,3]dioxin-6-yl)methyl)piperazin-1-yl)(6-fluoro-1H-benzo[d][1,2,3]triazol-1-yl)methanone] | 1 to 10 | ~50000 | 
5 | N#Cc1ccc2nnn(C(=O)N3CC4(CC(OC(c5ccc6c(c5)COCO6)c5ccc6c(c5)COCO6)C4)C3)c2c1 [Example 59, 1-(6-(bis(4H-benzo[d][1,3]dioxin-6-yl)methoxy)-2-azaspiro[3.3]heptane-2-carbonyl)-1H-benzo[d][1,2,3]triazole-6-carbonitrile] | 10 to 100 | ~10000 | 
6 | N#Cc1ncn(C(=O)N2CCN(C(c3ccc4c(c3)CCO4)c3ccc4c(c3)CCO4)CC2)n1 [Example 107, 1-(4-(bis(2,3-dihydrobenzofuran-5-yl)methyl)piperazine-1-carbonyl)-1H-1,2,4-triazole-3-carbonitrile] | 1 to 10 | 1000 to 10000 | 
7 | COc1ccc(OC(=O)N2CCN(C(c3ccc4c(c3)COCO4)c3ccc4c(c3)COCO4)CC2)cc1 [Example 14, 4-methoxyphenyl 4-(bis(4H-benzo[d][1,3]dioxin-6-yl)methyl)piperazine-1-carboxylate] | > 100 | > 50000 | 
8 | O=C(N1CCN(C(c2ccc3c(c2)COCO3)c2ccc3c(c2)COCO3)CC1)n1cnc(Cl)n1 [Example 2, (4-(bis(4H-benzo[d][1,3]dioxin-6-yl)methyl)piperazin-1-yl)(3-chloro-1H-1,2,4-triazol-1-yl)methanone] | 1 to 10 | > 10000 | 
9 | N#Cc1ccc2nnn(C(=O)N3CCC(N(c4ccc5c(c4)OCO5)c4ccc5c(c4)OCO5)CC3)c2c1 [Example 67, 1-(4-(bis(benzo[d][1,3]dioxol-5-yl)amino)piperidine-1-carbonyl)-1H-benzo[d][1,2,3]triazole-6-carbonitrile] | 1 to 10 | 100 to 1000 | 
10 | O=C(OC1CCCCC1)N1CCN(C(c2ccc3c(c2)COCO3)c2ccc3c(c2)COCO3)CC1 [Example 16, cyclohexyl 4-(bis(4H-benzo[d][1,3]dioxin-6-yl)methyl)piperazine-1-carboxylate] | > 100 | > 50000 | 
11 | N#Cc1ncn(C(=O)N2C3CCC2CC(=C(c2ccc4c(c2)COCO4)c2ccc4c(c2)COCO4)C3)n1 [Example 127, 1-(3-(bis(4H-benzo[d][1,3]dioxin-6-yl)methylene)-8-azabicyclo[3.2.1]octane-8-carbonyl)-1H-1,2,4-triazole-3-carbonitrile] |  | > 50000 | 1 to 10
12 | N#Cc1ccc2nnn(C(=O)N3CCC(N(c4ccc(F)cc4)c4ccc(F)cc4)CC3)c2c1 [Example 61, 1-(4-(bis(4-fluorophenyl)amino)piperidine-1-carbonyl)-1H-benzo[d][1,2,3]triazole-6-carbonitrile] | 1 to 10 | 100 to 1000 | 
13 | N#Cc1cnn(C(=O)N2CCN(C(c3ccc4c(c3)COCO4)c3ccc4c(c3)COCO4)CC2)c1 [Example 24, 1-(4-(bis(4H-benzo[d][1,3]dioxin-6-yl)methyl)piperazine-1-carbonyl)-1H-pyrazole-4-carbonitrile] | 1 to 10 | 1000 to 10000 | 
14 | O=C(Oc1ccc([N+](=O)[O-])cc1[N+](=O)[O-])N1CCN(C(c2ccc3c(c2)COCO3)c2ccc3c(c2)COCO3)CC1 [Example 13, 2,4-dinitrophenyl 4-(bis(4H-benzo[d][1,3]dioxin-6-yl)methyl)piperazine-1-carboxylate] | > 100 | > 10000 | 

Reference: patent publication US12378231B2, “Small molecules as monoacylglycerol lipase (MAGL) inhibitors, compositions and use thereof” (APOGEE PHARMACEUTICALS, INC., priority 2023, dated 2025)
